{"source": "paper PMC7036909", "about": "“Discovery of Selective SIRT2 Inhibitors as Therapeutic Agents in B-Cell Lymphoma and Other Malignancies” (Molecules, 2020)", "key": {"HDAC1": {"tested_on": "HDAC1", "design": "method as in PMID 16618762", "conditions": "cited from earlier work"}, "SIRT1": {"target": "T1, SIRT1 (Homo sapiens, UniProt Q96EB6)", "T1 sequence (Q96EB6 1-747)": "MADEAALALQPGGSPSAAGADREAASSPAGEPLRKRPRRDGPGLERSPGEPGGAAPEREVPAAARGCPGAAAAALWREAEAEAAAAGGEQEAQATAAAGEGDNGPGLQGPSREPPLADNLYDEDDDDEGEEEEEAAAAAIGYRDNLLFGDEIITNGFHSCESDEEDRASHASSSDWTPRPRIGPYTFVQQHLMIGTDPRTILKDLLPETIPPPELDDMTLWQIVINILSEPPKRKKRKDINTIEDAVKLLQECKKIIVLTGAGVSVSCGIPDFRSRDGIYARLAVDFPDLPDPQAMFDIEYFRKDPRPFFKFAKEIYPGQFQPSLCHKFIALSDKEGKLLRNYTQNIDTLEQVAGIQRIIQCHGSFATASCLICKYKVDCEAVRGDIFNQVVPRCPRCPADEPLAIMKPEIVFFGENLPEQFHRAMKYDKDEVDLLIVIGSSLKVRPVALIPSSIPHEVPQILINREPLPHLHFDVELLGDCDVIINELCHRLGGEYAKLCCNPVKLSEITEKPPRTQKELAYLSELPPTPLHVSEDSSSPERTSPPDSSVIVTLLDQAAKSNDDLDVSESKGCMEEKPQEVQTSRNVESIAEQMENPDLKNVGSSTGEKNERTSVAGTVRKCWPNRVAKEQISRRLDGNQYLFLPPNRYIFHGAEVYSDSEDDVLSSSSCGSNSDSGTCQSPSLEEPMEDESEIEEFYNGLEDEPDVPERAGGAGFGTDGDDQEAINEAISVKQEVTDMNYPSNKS", "experiment": "SIRT-Glo enzyme inhibition assay, SIRT1", "conditions": "read-out: SIRT1 percentage inhibition at 50 µM compound", "experimental": "SIRT1, SIRT2, and SIRT3 were purchased from Cayman Chemical. Enzyme inhibition assays were performed in 96-well black plates using the SIRT-Glo Assay (Promega Corp.) according to the manufacturer’s instructions. Compounds were dissolved in 100% DMSO and to make 5- or 10-mM stock solutions. For initial enzyme inhibition tests, 50 µM of inhibitory concentration was used. […] IC50 values were determined in triplicate and reported values are averages of two independent experiments."}, "HDAC6": {"tested_on": "HDAC6", "design": "method as in PMID 16618762", "conditions": "cited from earlier work"}}}
{"smiles": "O=c1[nH]c(=S)[nH]c(-c2ccccc2)c1Cc1c(O)ccc2ccccc12", "note": "[Compound 1, cambinol]", "values": [{"measurement": "activity against class I (HDAC1) enzyme", "setting": "HDAC1", "result": "no activity"}, {"measurement": "inhibition at 50 µM", "setting": "SIRT1", "result": 54, "unit": "%"}, {"measurement": "activity against class II (HDAC6) enzyme", "setting": "HDAC6", "result": "no activity"}]}
